Reference: patent US12011428B2, “Compositions and methods for stimulating ventilatory and/or respiratory drive” (priority 2022, dated 2024)

Experiments:
[1] = system: freely-moving adult male Sprague—Dawley rats
[2] = system: adult male Sprague—Dawley rats; conditions: rat, in vivo, iv
[3] = system: adult male Sprague—Dawley rats; experiment: Arterial blood gas measurements and A-a gradient; type: in vivo, rat; conditions: GSHee 100 μmol/kg IV alone
[4] = system: adult male Sprague—Dawley rats; experiment: Body temperature (BT), rectal thermistor probe; conditions: for Body temperature, Post-drug: conscious rats
[5] = system: adult male Sprague—Dawley rats; experiment: Behaviors observed after injection; type: in vivo, rat; conditions: GSHee 100 μmol/kg IV
[6] = GSH 100 μmol/kg IV, % change from Pre-values
[7] = GSH 100 μmol/kg IV, sum of the 15 individual % change from pre values

N[C@@H](CCC(=O)N[C@@H](CS)C(=O)NCC(=O)O)C(=O)O [GSH, glutathione]
Freq (frequency of breathing) ([1]; GSH 100 μmol/kg IV alone): prompt but short-lived increase | MV (minute ventilation) ([1]; GSH 100 μmol/kg IV alone): short-lived increases | TV (tidal volume) ([1]; GSH 100 μmol/kg IV alone): minor effects | Frequency (breaths/min), Peak drug response, % [1, 6]: +41% | Minute Ventilation (ml/min), Peak drug response, % [1, 6]: 61% | Tidal Volume (ml), Peak drug response, % [1, 6]: +15% | Frequency, Total drug response, % [1, 7]: +13% | Minute Ventilation, Total drug response, % [1, 7]: 15% | Tidal Volume, Total drug response, % [1, 7]: +2%

CCOC(=O)CNC(=O)[C@H](CS)NC(=O)CC[C@H](N)C(=O)O [GSHee, L-glutathione ethyl ester]
tail-flick latency (TFL) [2]: did not alter TFL | A-a gradient [3]: did not affect | arterial blood pCO2 [3]: minor but significant decrease | arterial blood pH [3]: minor but significant increases | arterial blood pO2 [3]: minor but significant increases | arterial blood sO2 [3]: did not affect | body temperature (BT) ([4]; 5 and 15 min post-injection of GSHee 100 μmol/kg IV): Neither vehicle nor GSHee affected BT | Body temperature, Post-drug ([4]; 5 min after GSHee 100 μmol/kg IV): 37.9 ± 0.1 | Body temperature, Post-drug ([4]; 15 min after GSHee 100 μmol/kg IV): 37.9 ± 0.1 | behavioral signs (movement, squealing, scratching or sniffing) after injection [5]: did not display any obvious behavioral signs
